# Data taken from ChEMBL document CHEMBL6121005 (Eur J Med Chem, 2025).
# Active and inactive are the calls of the source. The rule behind the calls is not given here.
# Columns and labels:
# [1] = system: Mus musculus; assay: Antialzheimer activity against amyloid beta (1 to 42)-induced ICR mouse cognitive deficit model assessed as increase in step-through latency time at 5 to 10 mg/kg, po administered daily and measured on day 13 and 14 by step-through passive avoidance test; format: functional, organism-based; conditions: dose 5-10 mg/kg, time 13-14 day
# [2] = Acute toxicity in male ICR mouse assessed as microscopic brain damage at 100 to 1000 mg/kg, po administered for 14 days by hematoxylin and eosin staining based assay; format: organism-based; conditions: in vivo, 336 h, dose 100-1000 mg/kg, time 14 day
# [3] = system: PC-12; assay: (§1) Neuroprotective activity against H2O2-induced rat PC12 cells assessed as protection against H2O2-induced apoptosis by measuring viable cells at 50 uM pretreated for 2 hrs followed by H2O2 addition and measured after 24 hrs by Annexin V-FITC/PI staining based flow cytometry analysis (reference value: 90.8 %); format: functional; conditions: time 26 hrs
# [4] = Inhibition of H2O2-induced ROS release in rat PC12 cells assessed as mean fluorescence intensity at 50 uM preincubated for 2 hrs followed by H2O2 addition and measured after 24 hrs by DCFH-DA based flow cytometry analysis (reference value: 23904); format: functional, PC-12; conditions: time 26 hrs
# [5] = system: PC-12; assay: as §1, with “early apoptotic” for “viable”, “0.88” for “90.8”; format: functional; conditions: time 26 hrs
# [6] = Acute toxicity in male ICR mouse assessed as effect on body weight at 100 to 1000 mg/kg, po administered for 14 days; format: organism-based; conditions: in vivo, 336 h, dose 100-1000 mg/kg, time 14 day
# [7] = system: Mus musculus; assay: Antialzheimer activity in amyloid beta (1 to 42 residues) induced ICR mouse memory impairment model assessed as increase in trajectory after platform removal at 2.5 to 10 mg/kg, po administered daily and measured after 15 to 19 days by Morris water maze test; format: functional, organism-based; conditions: dose 2.5-10 mg/kg, time 15-19 day
# [8] = biological target: T1, Cholinesterase (Homo sapiens, UniProt P06276); assay: Inhibition of human serum BuChE using butyrylthiocholine iodide as substrate at 10 uM incubated for 10 mins followed by substrate addition by DTNB reagent based Ellman's method relative to control
# [9] = biological target: Acetylcholinesterase (Homo sapiens, UniProt P22303); assay: Inhibition of human erythrocytes AChE measured after 10 mins by Ellman's method
# [10] = system: Mus musculus; assay: Antialzheimer activity in scopolamine-induced temporary memory and cognitive impairment ICR mouse model assessed as increase in step-through latency time at 2.5 to 10 mg/kg, po administered daily and measured on day 13 and 14 by step-through passive avoidance test; format: functional, organism-based; conditions: dose 2.5-10 mg/kg, time 13-14 day
# [11] = system: Mus musculus; assay: Antialzheimer activity against amyloid beta (1 to 42)-induced ICR mouse memory impairment model assessed as decrease in movement distance at 2.5 to 10 mg/kg, po administered daily and measured after 15 to 19 days by Morris water maze test; format: functional, organism-based; conditions: dose 2.5-10 mg/kg, time 15-19 day
# [12] = system: Mus musculus; assay: Antialzheimer activity against scopolamine-induced ICR mouse cognitive deficit model assessed as decrease in latency time at 2.5 to 10 mg/kg, po administrated daily and measured on last day of training by Morris water maze test; format: functional, organism-based; conditions: dose 2.5-10 mg/kg
# [13] = system: Mus musculus; assay: Antialzheimer activity against amyloid beta (1 to 42)-induced ICR mouse cognitive deficit model assessed as increase in alternation performance at 5 mg/kg, po administered daily and measured on day 12 by Y-maze test relative to control; format: functional; conditions: time 12 day
# [14] = Cytotoxicity against rat PC12 cells assessed as cell viability at 50 uM preincubated for 24 hrs and measured after 4 hrs by CCK-8 assay; format: toxicity, cell-based, PC-12; conditions: time 28 hrs, read-out: Activity
# [15] = Acute toxicity in male ICR mouse assessed as microscopic lungs damage at 100 to 1000 mg/kg, po administered for 14 days by hematoxylin and eosin staining based assay; format: organism-based; conditions: in vivo, 336 h, dose 100-1000 mg/kg, time 14 day
# [16] = system: Mus musculus; assay: Antialzheimer activity in scopolamine- induced ICR mouse assessed as increase in time spent within target quadrant at 2.5 to 10 mg/kg, po administered daily and measured after 16 to 20 days by Morris water maze test; format: functional, organism-based; conditions: dose 2.5-10 mg/kg, time 16-20 day
# [17] = system: PC-12; assay: Cytoprotective against rat PC12 cells assessed as cell viability at 50 uM preincubated for 24 hrs and measured after 4 hrs by CCK-8 assay; format: functional, cell-based
# [18] = system: Mus musculus; assay: Antialzheimer activity in scopolamine- induced ICR mouse assessed as increase in distance travelled within target quadrant at 2.5 to 10 mg/kg, po administered daily and measured after 16 to 20 days by Morris water maze test; format: functional, organism-based; conditions: dose 2.5-10 mg/kg, time 16-20 day
# [19] = system: Mus musculus; assay: Antialzheimer activity against amyloid beta (1 to 42)-induced ICR mouse cognitive deficit model assessed as increase in alternation performance at 10 mg/kg, po administered daily and measured on day 12 by Y-maze test relative to control; format: functional; conditions: time 12 day
# [20] = Acute toxicity in male ICR mouse assessed as microscopic liver damage at 100 to 1000 mg/kg, po administered for 14 days by hematoxylin and eosin staining based assay; format: organism-based; conditions: in vivo, 336 h, dose 100-1000 mg/kg, time 14 day
# [21] = Acute toxicity in male ICR mouse assessed as mortality at 100 to 1000 mg/kg, po administered as single dose for 14 days; format: organism-based; conditions: in vivo, 336 h, dose 100-1000 mg/kg, time 14 day
# [22] = Acute toxicity in male ICR mouse assessed as microscopic kidneys damage at 100 to 1000 mg/kg, po administered for 14 days by hematoxylin and eosin staining based assay; format: organism-based; conditions: in vivo, 336 h, dose 100-1000 mg/kg, time 14 day
# [23] = system: Mus musculus; assay: Antialzheimer activity against amyloid beta (1 to 42)-induced ICR mouse cognitive deficit model assessed as increase in alternation performance at 2.5 mg/kg, po administered daily and measured on day 12 by Y-maze test relative to control; format: functional; conditions: time 12 day
# [24] = system: Mus musculus; assay: Antialzheimer activity against scopolamine-induced ICR mouse cognitive deficit model assessed as decrease in movement distance at 2.5 to 10 mg/kg, po administrated daily and measured on last day of training by Morris water maze test; format: functional, organism-based; conditions: dose 2.5-10 mg/kg
# [25] = biological target: T1, Cholinesterase; assay: Inhibition of human serum BuChE using butyrylthiocholine iodide as substrate incubated for 10 mins followed by substrate addition by DTNB reagent based Ellman's method
# [26] = system: Mus musculus; assay: Antialzheimer activity in amyloid beta (1 to 42 residues) induced ICR mouse assessed as increase in distance travelled within target quadrant at 2.5 to 5 mg/kg, po administered daily and measured after 15 to 19 days by Morris water maze test; format: functional, organism-based; conditions: dose 2.5-5 mg/kg, time 15-19 day
# [27] = Acute toxicity in male ICR mouse assessed as microscopic spleen damage at 100 to 1000 mg/kg, po administered for 14 days by hematoxylin and eosin staining based assay; format: organism-based; conditions: in vivo, 336 h, dose 100-1000 mg/kg, time 14 day
# [28] = system: Mus musculus; assay: Antialzheimer activity in scopolamine-induced temporary memory and cognitive impairment ICR mouse model assessed as alternation performance at 10 mg/kg, po administered daily and measured on day 15 by Y-maze test; format: functional, organism-based; conditions: time 15.0 day
# [29] = system: Mus musculus; assay: Antialzheimer activity in amyloid beta (1 to 42 residues) induced ICR mouse assessed as increase in time spent within target quadrant at 2.5 to 5 mg/kg, po administered daily and measured after 15 to 19 days by Morris water maze test; format: functional, organism-based; conditions: dose 2.5-5 mg/kg, time 15-19 day
# [30] = system: PC-12; assay: as §1, with “necrotic” for “viable”, “0.99” for “90.8”; format: functional; conditions: time 26 hrs
# [31] = system: Mus musculus; assay: Antialzheimer activity against scopolamine-induced ICR mouse cognitive deficit model assessed as latency time at 2.5 to 10 mg/kg, po administrated daily and measured on initial day of training by Morris water maze test; format: functional; conditions: dose 2.5-10 mg/kg
# [32] = system: Mus musculus; assay: Antialzheimer activity against amyloid beta (1 to 42)-induced ICR mouse memory impairment model assessed as mean escape latency at 2.5 to 10 mg/kg, po administered daily and measured after 15 to 19 days by Morris water maze test; format: functional, organism-based; conditions: dose 2.5-10 mg/kg, time 15-19 day
# [33] = system: Mus musculus; assay: Antialzheimer activity in scopolamine-induced temporary memory and cognitive impairment ICR mouse model assessed as alternation performance at 2.5 to 5 mg/kg, po administered daily and measured on day 15 by Y-maze test; format: functional, organism-based; conditions: dose 2.5-5 mg/kg, time 15.0 day
# [34] = system: PC-12; assay: Antioxidant activity against H2O2-induced toxicity in rat PC12 cells at 12.5 uM preincubated for 2 hrs and measured after 24 hrs by CCK-8 assay; format: functional, cell-based; conditions: time 26.0 hrs
# [35] = system: PC-12; assay: as §1, with “late apoptotic” for “viable”, “7.26” for “90.8”; format: functional; conditions: time 26 hrs
# [36] = system: Mus musculus; assay: Antialzheimer activity in scopolamine-induced ICR mouse assessed as increase in trajectory within target quadrant at 2.5 to 10 mg/kg, po administered daily and measured after 16 to 20 days by Morris water maze test; format: functional, organism-based; conditions: dose 2.5-10 mg/kg, time 16-20 day
# [37] = Acute toxicity in male ICR mouse assessed as microscopic heart damage at 100 to 1000 mg/kg, po administered for 14 days by hematoxylin and eosin staining based assay; format: organism-based; conditions: in vivo, 336 h, dose 100-1000 mg/kg, time 14 day
# T1 sequence (P06276 whole entry): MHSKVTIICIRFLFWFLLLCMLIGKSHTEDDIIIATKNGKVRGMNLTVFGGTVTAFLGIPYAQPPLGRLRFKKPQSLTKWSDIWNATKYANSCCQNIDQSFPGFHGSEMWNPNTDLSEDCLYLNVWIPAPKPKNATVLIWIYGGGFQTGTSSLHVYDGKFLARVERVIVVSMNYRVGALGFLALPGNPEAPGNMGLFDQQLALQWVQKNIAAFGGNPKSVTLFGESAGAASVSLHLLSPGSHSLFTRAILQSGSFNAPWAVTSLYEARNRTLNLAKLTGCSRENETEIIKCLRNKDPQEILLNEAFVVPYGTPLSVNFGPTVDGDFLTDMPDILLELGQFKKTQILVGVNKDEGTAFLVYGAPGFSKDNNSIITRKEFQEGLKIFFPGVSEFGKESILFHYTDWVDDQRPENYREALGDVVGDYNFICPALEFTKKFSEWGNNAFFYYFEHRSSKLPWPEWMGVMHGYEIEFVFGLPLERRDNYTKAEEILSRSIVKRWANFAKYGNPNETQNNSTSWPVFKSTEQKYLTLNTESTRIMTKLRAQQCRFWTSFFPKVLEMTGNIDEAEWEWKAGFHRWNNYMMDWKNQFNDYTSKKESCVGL
# Acetylcholinesterase, sequence (P22303 whole entry): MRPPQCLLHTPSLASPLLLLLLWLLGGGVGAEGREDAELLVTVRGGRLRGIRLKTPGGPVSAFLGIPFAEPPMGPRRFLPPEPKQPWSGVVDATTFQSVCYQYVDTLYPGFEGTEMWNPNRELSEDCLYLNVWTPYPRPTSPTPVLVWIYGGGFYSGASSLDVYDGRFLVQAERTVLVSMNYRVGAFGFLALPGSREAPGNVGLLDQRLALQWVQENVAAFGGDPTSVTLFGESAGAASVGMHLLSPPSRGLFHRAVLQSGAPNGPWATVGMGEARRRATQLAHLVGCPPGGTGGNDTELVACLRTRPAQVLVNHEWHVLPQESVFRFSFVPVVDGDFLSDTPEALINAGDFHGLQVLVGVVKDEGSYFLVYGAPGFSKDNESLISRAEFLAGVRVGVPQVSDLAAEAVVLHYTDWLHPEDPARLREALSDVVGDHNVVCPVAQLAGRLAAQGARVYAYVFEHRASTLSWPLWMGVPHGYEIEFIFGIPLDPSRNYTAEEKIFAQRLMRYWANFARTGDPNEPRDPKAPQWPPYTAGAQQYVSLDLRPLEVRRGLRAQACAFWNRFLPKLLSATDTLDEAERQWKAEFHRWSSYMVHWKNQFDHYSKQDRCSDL
smiles,measurement,setting,value
COc1ccc2c3c1O[C@H]1C[C@@H](OCc4ccc(Cc5ccccc5F)cn4)C=C[C@@]31CCN(C)C2,Activity,[1],Active
same,Activity,[2],Non-toxic
same,Activity,[3],86%
same,Flu intensity,[4],41314
same,Activity,[5],5.42%
same,Activity,[6],Non-toxic
same,Activity,[7],Active
same,inhibition,[8],96.5%
same,IC50,[9],514 nM
same,Activity,[10],Dose-dependent-effect
same,Activity,[11],Active
same,Activity,[12],Active
same,Activity,[13],73.56%
same,"viability at 4 h, 50 µM",[14],> 90%
same,Activity,[15],Non-toxic
same,Activity,[16],Dose-dependent-effect
same,Activity,[17],Active
same,Activity,[18],Dose-dependent-effect
same,Activity,[19],76.91%
same,Activity,[20],Non-toxic
same,Activity,[21],Non-toxic
same,Activity,[22],Non-toxic
same,Activity,[23],72.91%
same,Activity,[24],Active
same,IC50,[25],358 nM
same,Activity,[26],Active
same,Activity,[27],Non-toxic
same,Activity,[28],inactive
same,Activity,[29],Active
same,Activity,[30],1.21%
same,Time,[31],60 s
same,Activity,[32],Active
same,Activity,[33],Active
same,Activity,[34],Dose-dependent-effect
same,Activity,[35],7.35%
same,Activity,[36],Active
same,Activity,[37],Non-toxic
